Experimental data: ChEMBL document CHEMBL1148786, “L-(+)-2-Amino-4-thiophosphonobutyric acid (L-thioAP4), a new potent agonist of group III metabotropic glutamate receptors: increased distal acidity affords enhanced potency” (J Med Chem, 2007)
The source made the active and inactive calls. No cut-off for these calls is given here.

Experiments:
[1] = target: Metabotropic glutamate receptor 4 (Rattus norvegicus, UniProt P31423); assay: Agonist activity at rat mGluR4 receptor expressed HEK293 cells assessed as effect on inositol phosphate production; assay type: functional, cell-based
Chain of Metabotropic glutamate receptor 4 (P31423 whole entry): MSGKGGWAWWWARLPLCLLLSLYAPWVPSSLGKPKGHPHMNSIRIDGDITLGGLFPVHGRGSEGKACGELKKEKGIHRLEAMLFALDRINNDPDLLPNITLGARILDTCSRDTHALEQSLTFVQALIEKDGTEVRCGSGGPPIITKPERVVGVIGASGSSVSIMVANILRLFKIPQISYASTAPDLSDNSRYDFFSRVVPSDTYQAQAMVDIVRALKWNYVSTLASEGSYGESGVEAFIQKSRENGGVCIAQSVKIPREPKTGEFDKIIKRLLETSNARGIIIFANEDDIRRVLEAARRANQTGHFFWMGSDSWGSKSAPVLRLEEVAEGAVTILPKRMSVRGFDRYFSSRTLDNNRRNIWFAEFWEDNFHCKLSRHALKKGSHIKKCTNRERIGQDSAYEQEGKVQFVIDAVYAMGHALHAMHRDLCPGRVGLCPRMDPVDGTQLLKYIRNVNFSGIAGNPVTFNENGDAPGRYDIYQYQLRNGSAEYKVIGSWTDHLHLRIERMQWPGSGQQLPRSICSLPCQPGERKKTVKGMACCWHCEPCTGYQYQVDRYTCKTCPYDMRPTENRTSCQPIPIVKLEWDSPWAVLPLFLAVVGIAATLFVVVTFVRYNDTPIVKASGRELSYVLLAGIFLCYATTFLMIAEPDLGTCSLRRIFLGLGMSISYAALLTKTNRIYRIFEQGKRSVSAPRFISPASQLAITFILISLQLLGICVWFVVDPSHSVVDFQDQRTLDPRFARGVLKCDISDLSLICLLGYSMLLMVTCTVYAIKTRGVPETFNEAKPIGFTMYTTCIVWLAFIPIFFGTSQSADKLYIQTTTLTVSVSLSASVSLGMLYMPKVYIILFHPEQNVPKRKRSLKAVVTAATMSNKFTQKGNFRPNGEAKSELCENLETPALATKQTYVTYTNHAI

[2] = target: Metabotropic glutamate receptor 6 (Rattus norvegicus, UniProt P35349); assay: Agonist activity at rat mGluR6 receptor expressed HEK293 cells assessed as effect on inositol phosphate production; assay type: functional, cell-based
[3] = target: Metabotropic glutamate receptor 7 (Rattus norvegicus, UniProt P35400); assay: Agonist activity at rat mGluR7 receptor expressed HEK293 cells assessed as effect on inositol phosphate production; assay type: functional, cell-based
[4] = target: Metabotropic glutamate receptor 8 (Rattus norvegicus, UniProt P70579); assay: Agonist activity at rat mGluR8 receptor expressed HEK293 cells assessed as effect on inositol phosphate production; assay type: functional, cell-based
[5] = target: Metabotropic glutamate receptor 1 (Homo sapiens) (UniProt Q13255); assay: Activity at mGluR1 receptor at 100 uM
Chain of Metabotropic glutamate receptor 1 (Homo sapiens) (Q13255 19-1194 limits assumed): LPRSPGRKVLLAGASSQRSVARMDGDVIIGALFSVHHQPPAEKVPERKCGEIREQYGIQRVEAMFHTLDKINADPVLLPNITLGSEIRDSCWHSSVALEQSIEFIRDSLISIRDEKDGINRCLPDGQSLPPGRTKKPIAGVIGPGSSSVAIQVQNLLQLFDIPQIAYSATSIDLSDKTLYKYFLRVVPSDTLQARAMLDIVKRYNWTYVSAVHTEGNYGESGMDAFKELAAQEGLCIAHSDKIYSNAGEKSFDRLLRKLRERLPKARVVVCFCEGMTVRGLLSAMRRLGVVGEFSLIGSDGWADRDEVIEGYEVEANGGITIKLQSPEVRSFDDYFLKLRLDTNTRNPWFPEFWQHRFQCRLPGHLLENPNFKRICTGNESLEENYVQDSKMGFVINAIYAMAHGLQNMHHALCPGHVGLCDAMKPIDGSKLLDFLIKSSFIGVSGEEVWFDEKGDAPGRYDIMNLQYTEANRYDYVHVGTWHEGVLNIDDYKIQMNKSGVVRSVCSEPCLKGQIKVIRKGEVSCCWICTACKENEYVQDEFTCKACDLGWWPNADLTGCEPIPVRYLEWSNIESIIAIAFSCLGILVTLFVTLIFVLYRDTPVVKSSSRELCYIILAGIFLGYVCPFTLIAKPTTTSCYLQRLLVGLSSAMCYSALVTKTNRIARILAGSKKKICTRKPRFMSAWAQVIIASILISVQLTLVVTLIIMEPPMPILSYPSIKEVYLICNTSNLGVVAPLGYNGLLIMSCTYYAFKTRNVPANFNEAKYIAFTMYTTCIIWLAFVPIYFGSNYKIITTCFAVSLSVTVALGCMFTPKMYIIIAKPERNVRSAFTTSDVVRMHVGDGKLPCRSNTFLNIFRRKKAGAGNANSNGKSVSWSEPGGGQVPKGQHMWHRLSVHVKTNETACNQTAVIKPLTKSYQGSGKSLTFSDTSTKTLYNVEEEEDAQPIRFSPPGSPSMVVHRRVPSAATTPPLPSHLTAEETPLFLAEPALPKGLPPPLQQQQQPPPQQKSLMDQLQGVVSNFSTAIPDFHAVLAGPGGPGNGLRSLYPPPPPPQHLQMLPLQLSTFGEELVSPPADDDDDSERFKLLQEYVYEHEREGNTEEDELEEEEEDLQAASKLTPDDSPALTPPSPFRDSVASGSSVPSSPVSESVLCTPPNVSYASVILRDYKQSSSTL

[6] = target: Metabotropic glutamate receptor 5 (Homo sapiens) (UniProt P41594); assay: Activity at mGluR5 receptor at 100 uM
Chain of Metabotropic glutamate receptor 5 (Homo sapiens) (P41594 21-1212 limits assumed): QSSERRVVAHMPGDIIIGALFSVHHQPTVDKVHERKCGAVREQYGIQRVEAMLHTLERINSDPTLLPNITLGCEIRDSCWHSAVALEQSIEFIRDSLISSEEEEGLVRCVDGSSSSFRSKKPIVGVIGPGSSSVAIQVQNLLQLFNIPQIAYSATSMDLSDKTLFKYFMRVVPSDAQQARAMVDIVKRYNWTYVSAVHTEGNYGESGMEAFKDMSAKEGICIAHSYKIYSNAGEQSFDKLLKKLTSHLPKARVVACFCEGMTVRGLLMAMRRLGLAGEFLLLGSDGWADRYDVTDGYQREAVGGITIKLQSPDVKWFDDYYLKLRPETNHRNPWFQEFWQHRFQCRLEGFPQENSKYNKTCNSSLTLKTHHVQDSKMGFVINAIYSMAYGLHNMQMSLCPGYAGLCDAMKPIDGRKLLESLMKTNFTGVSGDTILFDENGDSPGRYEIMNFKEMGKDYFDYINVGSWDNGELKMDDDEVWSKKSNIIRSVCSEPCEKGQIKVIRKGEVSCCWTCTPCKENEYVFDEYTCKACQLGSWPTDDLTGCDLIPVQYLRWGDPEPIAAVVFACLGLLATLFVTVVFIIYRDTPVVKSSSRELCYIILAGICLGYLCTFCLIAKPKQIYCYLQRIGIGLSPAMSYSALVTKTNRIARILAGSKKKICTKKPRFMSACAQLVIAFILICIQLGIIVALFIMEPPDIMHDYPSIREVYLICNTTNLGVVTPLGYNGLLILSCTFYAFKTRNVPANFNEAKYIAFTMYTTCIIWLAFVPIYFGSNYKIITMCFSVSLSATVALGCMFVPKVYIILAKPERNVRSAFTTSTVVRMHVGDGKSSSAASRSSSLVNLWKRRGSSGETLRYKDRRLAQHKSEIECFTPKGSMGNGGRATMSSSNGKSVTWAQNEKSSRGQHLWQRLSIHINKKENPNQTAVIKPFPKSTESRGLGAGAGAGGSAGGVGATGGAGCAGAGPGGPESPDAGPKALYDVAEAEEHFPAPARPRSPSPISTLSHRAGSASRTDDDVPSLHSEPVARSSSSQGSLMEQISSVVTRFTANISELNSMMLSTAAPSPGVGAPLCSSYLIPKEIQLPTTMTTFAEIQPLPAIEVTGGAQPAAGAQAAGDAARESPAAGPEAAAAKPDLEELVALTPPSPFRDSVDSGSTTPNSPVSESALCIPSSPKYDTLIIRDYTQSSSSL

[7] = target: Metabotropic glutamate receptor 2 (Homo sapiens) (UniProt Q14416); assay: Activity at mGluR2 receptor at 100 uM
Chain of Metabotropic glutamate receptor 2 (Homo sapiens) (Q14416 19-872 limits assumed): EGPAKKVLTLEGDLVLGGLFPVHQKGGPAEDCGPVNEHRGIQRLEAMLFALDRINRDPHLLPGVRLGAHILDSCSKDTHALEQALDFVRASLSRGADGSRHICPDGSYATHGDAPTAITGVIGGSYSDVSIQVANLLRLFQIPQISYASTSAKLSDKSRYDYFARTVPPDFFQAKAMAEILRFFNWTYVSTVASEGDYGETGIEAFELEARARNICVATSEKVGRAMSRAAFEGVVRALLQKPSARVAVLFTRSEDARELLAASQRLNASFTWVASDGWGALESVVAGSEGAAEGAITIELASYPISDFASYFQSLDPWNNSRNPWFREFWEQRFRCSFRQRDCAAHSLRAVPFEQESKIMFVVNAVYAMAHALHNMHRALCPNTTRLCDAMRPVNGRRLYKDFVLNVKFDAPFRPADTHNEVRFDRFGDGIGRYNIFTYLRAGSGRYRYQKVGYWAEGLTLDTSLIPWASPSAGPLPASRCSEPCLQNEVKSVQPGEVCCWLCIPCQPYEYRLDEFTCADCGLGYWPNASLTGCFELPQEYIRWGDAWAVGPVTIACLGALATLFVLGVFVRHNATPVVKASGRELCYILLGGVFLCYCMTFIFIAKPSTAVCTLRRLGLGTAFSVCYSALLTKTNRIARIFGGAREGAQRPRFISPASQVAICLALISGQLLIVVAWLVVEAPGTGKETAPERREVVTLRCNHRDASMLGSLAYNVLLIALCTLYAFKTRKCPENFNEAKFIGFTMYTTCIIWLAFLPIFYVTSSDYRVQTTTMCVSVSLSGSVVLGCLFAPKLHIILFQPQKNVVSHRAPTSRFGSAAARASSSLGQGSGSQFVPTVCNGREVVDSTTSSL

[8] = target: Metabotropic glutamate receptor 3 (Homo sapiens) (UniProt Q14832); assay: Activity at mGluR3 receptor at 100 uM
Chain of Metabotropic glutamate receptor 3 (Homo sapiens) (Q14832 23-879 limits assumed): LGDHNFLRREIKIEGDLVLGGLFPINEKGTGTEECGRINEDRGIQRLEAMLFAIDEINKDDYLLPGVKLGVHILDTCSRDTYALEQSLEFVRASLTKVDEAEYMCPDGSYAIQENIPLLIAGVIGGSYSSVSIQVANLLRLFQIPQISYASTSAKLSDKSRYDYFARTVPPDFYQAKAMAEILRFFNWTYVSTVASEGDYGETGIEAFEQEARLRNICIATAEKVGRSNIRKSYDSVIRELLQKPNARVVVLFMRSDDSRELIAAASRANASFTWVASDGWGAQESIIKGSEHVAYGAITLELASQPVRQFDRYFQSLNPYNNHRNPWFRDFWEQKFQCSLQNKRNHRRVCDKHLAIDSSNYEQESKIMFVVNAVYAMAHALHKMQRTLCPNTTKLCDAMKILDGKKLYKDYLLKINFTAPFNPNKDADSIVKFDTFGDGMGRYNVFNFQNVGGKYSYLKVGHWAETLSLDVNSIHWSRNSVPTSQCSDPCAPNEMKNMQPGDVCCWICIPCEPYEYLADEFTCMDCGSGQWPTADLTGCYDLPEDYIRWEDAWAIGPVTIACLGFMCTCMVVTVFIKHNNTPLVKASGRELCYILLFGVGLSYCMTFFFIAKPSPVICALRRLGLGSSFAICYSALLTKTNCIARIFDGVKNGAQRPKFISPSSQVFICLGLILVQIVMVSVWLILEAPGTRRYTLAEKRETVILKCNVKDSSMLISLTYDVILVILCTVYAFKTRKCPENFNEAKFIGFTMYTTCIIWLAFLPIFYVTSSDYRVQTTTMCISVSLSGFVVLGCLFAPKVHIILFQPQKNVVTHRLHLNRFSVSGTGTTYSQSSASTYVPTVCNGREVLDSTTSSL

| SMILES | EC50 [1] | EC50 [2] | EC50 [3] | EC50 [4] | Activity [5] | Activity [6] | Activity [7] | Activity [8] |
| --- | --- | --- | --- | --- | --- | --- | --- | --- |
| N[C@@H](CC[PH](=O)O)C(=O)O | 4.05 µM | 27.8 µM | > 500 µM | 1.72 µM | inactive | inactive | inactive | inactive |
| CP(=O)(O)CC[C@H](N)C(=O)O [PHOSPHINOTHRICIN] | 1100 µM | > 500 µM | > 500 µM | 412 µM | inactive | inactive | inactive | inactive |
| N[C@@H](CCP(O)(O)=S)C(=O)O | – | – | – | – | inactive | inactive | inactive | inactive |
| N[C@@H](CCP(=O)(O)O)C(=O)O | – | – | – | – | inactive | inactive | inactive | inactive |
